Measurements published in patent publication US8226944B2, “Composition for treating virus infection disease comprising Jab1” (priority 2004, dated 2012).
Square brackets hold non-standard residues; d marks the D form. Peptide text beside a SMILES is read from it. Nle = CCCC[C@H](N)C(=O)O

Legend:
WNV-Cp [1] = assay: Western blotting of WNV-Cp protein levels in transfected 293T cells; type: cell-based
Experimental: 293T cells were plated onto 60-mm plates at a density of 3×10^5 cells, cultured, and transfected with pcDAN3-HA/WNV-Cp alone, and pcDAN3-HA/WNV-Cp and pCMV-tag2B-Jab1 together using an Effectene transfection reagent (Qiagen). In the case of the co-transfection, to equalize the levels of expressed DNA, 12 hrs after transfection, cells were divided into two plates by pipetting. 20 hrs after transfection, the cells were treated for 4 hrs with 20 μM/ml of the proteasome inhibitor LLnL (N-acetyl-L-luecinyl-norleucinal, Sigma). Then, the cells were washed with 1×PBS and collected. Samples of 50 μg protein were loaded onto a SDS-PAGE gel and analyzed by Western blotting using an anti-HA antibody (Santa Cruz) for the detection of WNV-Cp expression and an anti-Flag M2 antibody (Sigma) for the detection of Jab1 expression. Actin was used as a loading control.

[2] = system: SH-SY5Y cells expressing WNV-Cp; assay: Annexin V-PE staining / FACS apoptosis rate in cells transfected with WNV-Cp gene; type: cell-based, human; conditions: 200 nM inhibitor added after 6 hrs, measured after 24 hrs, untreated WNV-Cp cells 69.6%
Excerpt: Human neuroblastoma SH-SY5Y cells were transfected with a WNV-Cp gene. To determine an apoptosis rate in cells expressing the capsid protein of WNV, the cells were stained with annexin V-PE and subjected to FACS analysis (BioRAD, Win BRYTE). As a result, the cells were fractionated into four fractions: A, B, C and D. The A fraction indicates a cell population that was not injected with the WNV-Cp gene and stained with annexin V-PE.
Separately, SH-SY5Y cells were transfected with a WNV-Cp gene. After 6 hrs, the cells were treated with 200 nM of a PI3K inhibitor, wortmanin (Sigma), and 5 μM and 50 μM of an Akt inhibitor, calbiochem (CN Biosciences). After 24 hrs, the cells were stained with annexin V-PE that is capable of detecting a step of apoptosis and subjected to FACS analysis (BioRAD, WinBryte) for measuring an apoptosis rate. […] The transfected cells were analyzed on a FL3 channel (green fluorescence) and annexin V-PE binding was analyzed on a FL2 channel. An apoptosis rate in capsid-expressing cells was calculated according to Reaction 1, below. Cells transfected with a pEGFP-N1 plasmid were used as a negative control, and cells transfected with a C2-Cp plasmid and not treated with the inhibitor were used as a positive control. [Annexin V-PE-positive cells/(all cells expressing C2−Cp)]×100 [Reaction 1]

caspase-3 and caspase-9 = assay: Caspase activity assay (colorimetric) in transfected 293T cells; type: cell-based, human; conditions: 293T cells co-expressing WNV-Cp and Jab1 versus WNV-Cp alone, 24 hrs after transfection
Experimental: 293T cells were plated onto 60-mm plates at a density of 3×10^5 cells, cultured, and transfected with pcDNA3-HA, pcDNA3-HA/Cp, pCMV-tag2B-Jab1, both pcDNA3-HA/Cp and pCMV-tag2B-Jab1, and pcDNA3-Bax, respectively. After 24 hrs, the cells were washed with 1×PBS twice, transferred to 1.5-ml tubes, and lysed with 20 μl of buffer C (25% glycerol, 0.42 M NaCl, 1.5 M MgCl2, 0.2 mM EDTA, 20 mM HEPES, 1 mM DTT, 0.5 mM PMSF, pH7.9). After being incubated for 10 min on ice, the lysed cells were centrifuged. The total protein concentration in each supernatant was measured, and samples of zero to 300 μg of proteins were placed into a 96-well plate. To the 96-well plate, 50 μl of 2× reaction buffer and 5 μl of 4 mM DNA-conjugated substrate, provided in a caspase colorimetric substrate set II plus kit (Biovision), were added. After a 1-hr incubation at 37° C., the activity of caspase-3 and caspase-9 was measured at 410 nm using a microtiter plate reader. The results are given in the A panel of FIG. 8. In cells expressing WNV-Cp, the activity of capase-3 and caspase-9 was similar to that in cells expressing Bax, a member of the pro-apoptotic Bcl-2 family. […] The expression of the proteins used in this caspase activity assay was detected by Western blotting, and the results are given in the B panel of FIG. 8.

p53 = assay: Western blotting of endogenous p53 expression in transfected U2OS cells; type: cell-based, human; conditions: U2OS cells transfected with 1, 3 and 5 μg Flag construct, 48 hrs
Experimental: U2OS cells were transfected with Flag/mdm2 (control) and Flag/Jab1 with various concentrations of 1, 3 and 5 μg using a Lipofectamin/plus reagent (Invitrogen). After 48 hrs, cell lysates were collected, and total protein concentrations were measured by a BSA (PIERCE) method. Samples of 100 μg/ml protein were separated on a 10% SDS-PAGE gel and transferred to a nitrocellulose membrane. The blot was blocked with 5% skim milk for 30 min, and treated with a rabbit anti-HA antibody (Santa Cruz) and a mouse anti-Flag antibody (Sigma) to examine expression levels of p53 according to increased expression of mdm2 and Jab1.

WNV-Cp [3] = target: T1, WNV-Cp (West Nile virus, UniProt Q9Q6P4); assay: Immunoprecipitation of Jab1 with WNV-Cp in cotransfected 293T cells; type: binding; conditions: 293T cells cotransfected with Flag-Jab1 and HA-WNV-Cp, IP with anti-HA antibody
T1 construct: capsid (Cp) protein of West Nile virus (WNV); expressed in transfected cells; host or cells: 293T
T1 sequence (Q9Q6P4 2-105 limits assumed): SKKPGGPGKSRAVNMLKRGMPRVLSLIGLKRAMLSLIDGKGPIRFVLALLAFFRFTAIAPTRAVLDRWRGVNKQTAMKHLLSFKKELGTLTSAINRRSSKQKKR
Experimental: Separately, immunoprecipitation (IP) was performed to confirm the interaction between WNV-Cp and Jab1. 293T cells were cotransfected with Flag-Jab1 and HA-WNV-Cp plasmids, and the whole cell lysates were immunoprecipitated with an anti-HA mouse antibody. As a control, IP was carried out with an anti-Myc antibody. Immunoprecipited proteins were run on a 12% SDS-PAGE gel, transferred to a nitrocellulose membrane, and detected with an anti-Flag mouse antibody to visualize immunoprecipitated Jab1 along with WNV-Cp (FIG. 7).

WNV-Cp [4] = assay: Immunofluorescence (confocal) localisation of WNV-Cp in cotransfected 293T, U2OS and HeLa cells; type: cell-based, West Nile virus; conditions: U2OS and HeLa cells cotransfected with WNV-Cp and Jab1, 24 hrs
Excerpt: To evaluate the effect of Jab1, identified to interact with WNV-Cp, on the intracellular location of WNV-cp, 293T, U2OS and HeLa cells were cotransfected with the WNV-Cp protein and Jab1. 293T, U2OS and HeLa cells were cotransfected with HA-tagged pcDNA-HA/WNV-Cp and Flag-tagged pCMV Tag2B-Jab1. After 24 hrs, the cells were stained using an anti-HA antibody (green) and an anti-Flag antibody (red) and observed under a confocal microscope.

Sequence of p53 (P04637 whole entry): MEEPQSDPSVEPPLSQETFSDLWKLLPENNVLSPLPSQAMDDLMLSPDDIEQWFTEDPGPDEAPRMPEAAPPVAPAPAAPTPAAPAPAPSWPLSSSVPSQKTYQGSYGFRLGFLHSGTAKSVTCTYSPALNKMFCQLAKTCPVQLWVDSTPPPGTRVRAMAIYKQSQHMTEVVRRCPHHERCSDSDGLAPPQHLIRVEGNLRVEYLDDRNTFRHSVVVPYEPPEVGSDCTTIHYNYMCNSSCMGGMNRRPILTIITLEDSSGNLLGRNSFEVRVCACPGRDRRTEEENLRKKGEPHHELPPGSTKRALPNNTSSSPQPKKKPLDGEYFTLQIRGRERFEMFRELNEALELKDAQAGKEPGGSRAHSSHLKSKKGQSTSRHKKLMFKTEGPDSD

CCCC[C@@H](C=O)NC(=O)[C@H](CC(C)C)NC(=O)[C@H](CC(C)C)NC(C)=O [LLnL, N-acetyl-L-luecinyl-norleucinal, reference compound] (Ac-Leu-Leu-[Nle]-aldehyde)
protein levels of WNV-Cp (WNV-Cp [1]; 293T cells cotransfected with WNV-Cp and Jab1, treated for 4 hrs with 20 μM/ml LLnL): increased

COC[C@H]1OC(=O)c2coc3c2[C@@]1(C)C1=C(C3=O)[C@@H]2CCC(=O)[C@@]2(C)C[C@H]1OC(C)=O [wortmanin]
apoptosis rate [2]: 22.8%

Jab1: Jun-activation binding protein 1, expressed in cells from plasmid pCMV-tag2B-Jab1 (Flag-tagged); amino acid sequence SEQ ID No. 2
caspase activity (caspase-3 and caspase-9) (caspase-3 and caspase-9): remarkably reduced | protein levels of WNV-Cp (WNV-Cp [1]; 293T cells, co-expression with Jab1 compared to single expression of WNV-Cp): large decrease | expression of p53 (p53): remarkably decreased | interaction with WNV-Cp (co-immunoprecipitation) (WNV-Cp [3]): co-immunoprecipitated with WNV-Cp | intracellular location of WNV-Cp (WNV-Cp [4]): appeared in the cytoplasm
